Assay results from ChEMBL document CHEMBL1201862, “PubChem BioAssay data set” (2004).
Activity calls are given as the source filed them.

Legend:
[1] = cells; type: functional
[2] = THP-1 cell cytotoxicity, dose response, cytotoxicity control for non-replicating M. tuberculosis project (AID 489025); type: functional
[3] = target: FAD-linked sulfhydryl oxidase ALR (Homo sapiens, UniProt P55789); test: ALR-catalysed DTT oxidation blockers – biochemical, H2O2 detection, luminescence, cherry-pick, dose response (AID 493248)
Sequence of FAD-linked sulfhydryl oxidase ALR (P55789 whole entry): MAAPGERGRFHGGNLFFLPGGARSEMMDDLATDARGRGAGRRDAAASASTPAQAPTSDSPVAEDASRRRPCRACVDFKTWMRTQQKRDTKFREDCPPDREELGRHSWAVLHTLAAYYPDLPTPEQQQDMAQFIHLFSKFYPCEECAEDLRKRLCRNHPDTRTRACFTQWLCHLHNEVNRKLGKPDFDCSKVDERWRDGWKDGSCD

[4] = target: Voltage-dependent T-type calcium channel subunit alpha-1H (Homo sapiens, UniProt O95180); type: functional;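 also: channel activity triggered by adding a high calcium stimulation buffer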
Sequence of Voltage-dependent T-type calcium channel subunit alpha-1H (O95180 whole entry): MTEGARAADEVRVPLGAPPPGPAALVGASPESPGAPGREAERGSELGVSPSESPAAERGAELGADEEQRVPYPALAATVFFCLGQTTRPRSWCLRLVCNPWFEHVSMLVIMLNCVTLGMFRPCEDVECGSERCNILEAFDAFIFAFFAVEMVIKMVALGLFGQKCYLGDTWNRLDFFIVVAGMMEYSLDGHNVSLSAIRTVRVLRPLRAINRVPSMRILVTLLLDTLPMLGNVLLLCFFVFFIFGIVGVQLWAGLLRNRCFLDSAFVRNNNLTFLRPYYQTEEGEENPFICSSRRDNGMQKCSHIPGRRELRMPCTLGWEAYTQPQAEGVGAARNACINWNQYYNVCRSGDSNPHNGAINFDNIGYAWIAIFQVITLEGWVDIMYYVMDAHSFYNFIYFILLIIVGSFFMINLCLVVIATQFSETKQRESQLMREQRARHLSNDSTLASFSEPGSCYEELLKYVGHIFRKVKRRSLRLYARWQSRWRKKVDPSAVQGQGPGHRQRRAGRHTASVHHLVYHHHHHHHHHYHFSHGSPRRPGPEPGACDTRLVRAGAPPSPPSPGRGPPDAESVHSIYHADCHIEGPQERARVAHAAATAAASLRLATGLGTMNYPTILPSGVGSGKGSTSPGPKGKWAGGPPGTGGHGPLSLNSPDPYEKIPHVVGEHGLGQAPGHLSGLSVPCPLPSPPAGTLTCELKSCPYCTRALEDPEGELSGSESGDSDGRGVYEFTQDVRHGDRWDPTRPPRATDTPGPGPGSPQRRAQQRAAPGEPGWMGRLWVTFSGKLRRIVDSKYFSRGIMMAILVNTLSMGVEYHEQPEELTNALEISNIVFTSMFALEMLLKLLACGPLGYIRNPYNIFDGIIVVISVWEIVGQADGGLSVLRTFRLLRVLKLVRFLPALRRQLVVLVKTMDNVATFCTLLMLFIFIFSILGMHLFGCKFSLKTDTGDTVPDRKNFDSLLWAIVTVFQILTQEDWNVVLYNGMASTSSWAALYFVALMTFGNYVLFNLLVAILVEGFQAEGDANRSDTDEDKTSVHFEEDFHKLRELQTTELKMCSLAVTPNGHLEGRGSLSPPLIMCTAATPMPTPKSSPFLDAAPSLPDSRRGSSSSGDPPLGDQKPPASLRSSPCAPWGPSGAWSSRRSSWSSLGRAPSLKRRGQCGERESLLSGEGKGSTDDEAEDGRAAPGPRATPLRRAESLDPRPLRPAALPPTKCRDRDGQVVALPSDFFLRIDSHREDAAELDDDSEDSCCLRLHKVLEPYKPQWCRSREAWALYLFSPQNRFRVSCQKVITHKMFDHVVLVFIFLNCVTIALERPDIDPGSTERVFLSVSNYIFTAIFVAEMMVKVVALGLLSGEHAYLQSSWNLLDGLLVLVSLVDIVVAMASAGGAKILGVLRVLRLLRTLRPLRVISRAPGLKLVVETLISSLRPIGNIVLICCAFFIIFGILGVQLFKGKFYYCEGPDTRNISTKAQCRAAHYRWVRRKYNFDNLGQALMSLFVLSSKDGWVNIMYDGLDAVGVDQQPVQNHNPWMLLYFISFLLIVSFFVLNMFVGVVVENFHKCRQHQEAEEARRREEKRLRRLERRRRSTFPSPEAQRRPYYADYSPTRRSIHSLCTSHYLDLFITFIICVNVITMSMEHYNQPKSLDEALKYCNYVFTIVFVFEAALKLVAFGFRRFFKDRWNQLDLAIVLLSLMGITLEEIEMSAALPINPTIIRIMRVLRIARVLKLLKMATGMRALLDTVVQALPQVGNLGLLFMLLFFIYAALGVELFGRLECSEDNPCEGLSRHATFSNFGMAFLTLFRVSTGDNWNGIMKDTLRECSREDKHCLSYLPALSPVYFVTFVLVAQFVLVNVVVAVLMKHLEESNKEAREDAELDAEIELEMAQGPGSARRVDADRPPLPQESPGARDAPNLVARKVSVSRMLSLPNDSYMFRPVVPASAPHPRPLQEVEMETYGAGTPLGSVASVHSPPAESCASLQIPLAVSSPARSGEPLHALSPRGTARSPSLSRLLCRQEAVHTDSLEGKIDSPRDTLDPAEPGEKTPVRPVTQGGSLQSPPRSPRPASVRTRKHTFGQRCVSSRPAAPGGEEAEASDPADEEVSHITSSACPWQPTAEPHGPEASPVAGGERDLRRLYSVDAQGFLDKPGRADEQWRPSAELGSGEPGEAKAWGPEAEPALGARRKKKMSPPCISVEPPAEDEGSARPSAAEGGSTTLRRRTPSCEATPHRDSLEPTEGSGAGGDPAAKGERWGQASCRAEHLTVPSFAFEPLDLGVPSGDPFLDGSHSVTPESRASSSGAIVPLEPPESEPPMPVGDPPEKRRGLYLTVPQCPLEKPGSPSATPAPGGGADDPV

[5] = NIH-3T3 fibroblast cytotoxicity, dose response, cytotoxicity control, cell-based, fluorescence, Alamar Blue, secondary assay (AID 2327); type: functional;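 also: NIH-3T3 mouse fibroblasts cultured with fluconazole at 8 µg/mL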
[6] = target: T1, High affinity choline transporter 1 (Homo sapiens, UniProt Q9GZV3); test: human choline transporter blockers, potency – cell-based, 5-point CRC, membrane potential dye, dose response (AID 504840); type: functional
T1 sequence (Q9GZV3 whole entry): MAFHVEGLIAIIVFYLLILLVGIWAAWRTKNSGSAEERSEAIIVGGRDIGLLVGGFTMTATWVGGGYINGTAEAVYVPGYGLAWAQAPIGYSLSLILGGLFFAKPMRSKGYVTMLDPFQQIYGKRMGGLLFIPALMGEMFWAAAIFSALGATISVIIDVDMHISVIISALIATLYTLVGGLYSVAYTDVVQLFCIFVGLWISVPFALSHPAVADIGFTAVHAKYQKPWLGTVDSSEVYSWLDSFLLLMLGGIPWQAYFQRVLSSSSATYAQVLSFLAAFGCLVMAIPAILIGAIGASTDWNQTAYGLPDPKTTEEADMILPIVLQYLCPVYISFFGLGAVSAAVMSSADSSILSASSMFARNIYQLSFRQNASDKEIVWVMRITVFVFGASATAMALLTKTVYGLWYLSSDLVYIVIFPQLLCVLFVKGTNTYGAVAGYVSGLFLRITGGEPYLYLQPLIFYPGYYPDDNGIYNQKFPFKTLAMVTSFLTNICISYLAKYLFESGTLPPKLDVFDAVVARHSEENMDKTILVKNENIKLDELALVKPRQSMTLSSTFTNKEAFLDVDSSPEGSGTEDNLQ

[7] = target: T2, Polyadenylate-binding protein 1 (Homo sapiens, UniProt P11940); test: MLLE binding blockers, Cy5 peptide tracer – biochemical, fluorescence polarization, Cy5-PAM2 peptide, secondary, miRNA deadenylation inhibitor project, dose response (AID 602260); type: functional; settings: read-out: IC50_Mean
T2 sequence (P11940 whole entry, the tested form may be a part): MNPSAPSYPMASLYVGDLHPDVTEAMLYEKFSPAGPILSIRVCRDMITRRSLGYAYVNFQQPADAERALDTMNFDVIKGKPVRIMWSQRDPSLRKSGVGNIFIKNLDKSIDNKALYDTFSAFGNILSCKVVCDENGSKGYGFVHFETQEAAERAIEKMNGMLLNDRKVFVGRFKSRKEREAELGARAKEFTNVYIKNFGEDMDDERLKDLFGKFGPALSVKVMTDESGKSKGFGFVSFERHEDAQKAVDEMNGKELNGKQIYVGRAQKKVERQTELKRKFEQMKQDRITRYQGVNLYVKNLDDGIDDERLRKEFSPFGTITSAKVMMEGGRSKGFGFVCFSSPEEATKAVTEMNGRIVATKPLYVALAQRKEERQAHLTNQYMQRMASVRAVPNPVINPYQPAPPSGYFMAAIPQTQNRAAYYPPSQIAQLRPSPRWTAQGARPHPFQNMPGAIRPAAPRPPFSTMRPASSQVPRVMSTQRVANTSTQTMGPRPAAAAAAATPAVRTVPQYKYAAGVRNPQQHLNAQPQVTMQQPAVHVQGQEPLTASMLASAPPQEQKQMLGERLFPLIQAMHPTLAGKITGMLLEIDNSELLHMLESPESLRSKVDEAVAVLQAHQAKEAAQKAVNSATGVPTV

[8] = target: T2, Polyadenylate-binding protein 1; test: MLLE domain peptide-binding blockers, IC50 – biochemical, fluorescence polarization, FITC-PAM2 peptide, dose response (AID 602259); type: functional; settings: read-out: IC50_Mean
[9] = target: T3, Calpain-2 catalytic subunit (Sus scrofa, UniProt P43367); test: m-calpain protease blockers, concentration series – biochemical, fluorogenic peptide substrate, dose response (AID 1420); type: functional
T3 sequence (P43367 whole entry): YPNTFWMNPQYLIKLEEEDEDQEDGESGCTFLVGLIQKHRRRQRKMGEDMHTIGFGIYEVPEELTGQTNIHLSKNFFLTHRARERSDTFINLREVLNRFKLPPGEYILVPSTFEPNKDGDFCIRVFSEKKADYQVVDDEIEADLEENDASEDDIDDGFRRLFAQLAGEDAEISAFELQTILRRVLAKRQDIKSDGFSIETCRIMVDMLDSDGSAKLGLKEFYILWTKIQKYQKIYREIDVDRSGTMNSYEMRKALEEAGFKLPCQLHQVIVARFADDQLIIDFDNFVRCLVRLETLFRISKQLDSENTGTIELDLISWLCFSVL

[10] = target: Estrogen receptor beta (Homo sapiens, UniProt Q92731);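 also: recombinant ER-beta bound to coactivator SRC1 peptide in presence of estradiol agonist; inhibitors block coactivator peptide binding and lower the FRET signal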
Sequence of Estrogen receptor beta (Q92731 whole entry): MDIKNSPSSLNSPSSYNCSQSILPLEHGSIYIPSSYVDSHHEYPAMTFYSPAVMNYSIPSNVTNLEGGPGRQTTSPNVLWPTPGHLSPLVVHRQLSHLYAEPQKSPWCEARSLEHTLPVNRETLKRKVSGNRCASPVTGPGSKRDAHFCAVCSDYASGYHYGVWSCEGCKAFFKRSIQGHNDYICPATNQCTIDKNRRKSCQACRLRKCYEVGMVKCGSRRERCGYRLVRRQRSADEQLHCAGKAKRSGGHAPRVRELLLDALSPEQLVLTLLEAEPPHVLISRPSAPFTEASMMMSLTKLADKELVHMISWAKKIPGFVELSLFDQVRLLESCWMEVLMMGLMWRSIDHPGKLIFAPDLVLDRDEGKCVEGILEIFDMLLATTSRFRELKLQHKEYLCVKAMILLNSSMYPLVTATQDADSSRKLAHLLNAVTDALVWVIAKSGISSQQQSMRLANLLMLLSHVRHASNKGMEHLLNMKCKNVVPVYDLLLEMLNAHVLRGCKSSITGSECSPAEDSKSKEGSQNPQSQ

[11] = target: Glyceraldehyde-3-phosphate dehydrogenase (Homo sapiens, UniProt P04406)
Sequence of Glyceraldehyde-3-phosphate dehydrogenase (P04406 whole entry): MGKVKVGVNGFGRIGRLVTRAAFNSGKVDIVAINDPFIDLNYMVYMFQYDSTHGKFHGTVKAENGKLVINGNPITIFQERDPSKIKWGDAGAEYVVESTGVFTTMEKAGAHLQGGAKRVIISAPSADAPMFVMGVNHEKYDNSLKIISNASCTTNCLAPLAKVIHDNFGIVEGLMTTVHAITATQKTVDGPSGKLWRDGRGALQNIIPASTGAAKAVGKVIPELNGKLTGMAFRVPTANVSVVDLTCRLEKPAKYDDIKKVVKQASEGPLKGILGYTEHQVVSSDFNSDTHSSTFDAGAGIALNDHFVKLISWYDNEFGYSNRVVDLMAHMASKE

[12] = target: T4, Streptokinase A (Streptococcus pyogenes serotype M1, UniProt P10520); test: viability-normalized secreted streptokinase activity reduction – plasminogen activation absorbance, OD405, dose response (AID 1914); type: functional, Streptococcus pyogenes M1 GAS;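 also: secreted streptokinase activity via plasminogen activation per viability signal from cell pellet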
T4 sequence (P10520 whole entry): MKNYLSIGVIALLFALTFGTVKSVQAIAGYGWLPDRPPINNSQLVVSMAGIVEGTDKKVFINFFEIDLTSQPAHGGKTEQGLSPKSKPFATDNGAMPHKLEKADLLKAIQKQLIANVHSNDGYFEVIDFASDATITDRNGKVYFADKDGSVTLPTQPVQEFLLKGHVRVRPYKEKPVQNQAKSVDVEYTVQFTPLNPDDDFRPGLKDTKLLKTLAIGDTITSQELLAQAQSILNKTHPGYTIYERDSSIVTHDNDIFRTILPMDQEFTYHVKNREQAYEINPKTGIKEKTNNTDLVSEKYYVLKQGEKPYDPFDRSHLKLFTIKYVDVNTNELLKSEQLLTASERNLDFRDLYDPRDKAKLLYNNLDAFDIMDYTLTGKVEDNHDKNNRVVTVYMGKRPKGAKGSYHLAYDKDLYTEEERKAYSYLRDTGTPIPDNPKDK

[13] = system: Streptococcus; test: GAS UMAA2166 growth inhibition – luminescence, BacTiterGlo, counter-screen for streptokinase expression inhibitor project, dose response (AID 1915); type: functional, organism-based;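 also: potency for reduction of bacterial viability or growth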
[14] = system: Streptococcus sp. 'group A'; test: Streptococcus pyogenes SK(-)GAS viability under kanamycin – luminescence, BacTiterGlo, confirmation, counter-screen for streptokinase expression inhibitor project, dose response (AID 1900); type: functional, organism-based
[15] = target: T5, Protein skinhead-1 (Caenorhabditis elegans, UniProt P34707); type: functional
T5 sequence (P34707 whole entry): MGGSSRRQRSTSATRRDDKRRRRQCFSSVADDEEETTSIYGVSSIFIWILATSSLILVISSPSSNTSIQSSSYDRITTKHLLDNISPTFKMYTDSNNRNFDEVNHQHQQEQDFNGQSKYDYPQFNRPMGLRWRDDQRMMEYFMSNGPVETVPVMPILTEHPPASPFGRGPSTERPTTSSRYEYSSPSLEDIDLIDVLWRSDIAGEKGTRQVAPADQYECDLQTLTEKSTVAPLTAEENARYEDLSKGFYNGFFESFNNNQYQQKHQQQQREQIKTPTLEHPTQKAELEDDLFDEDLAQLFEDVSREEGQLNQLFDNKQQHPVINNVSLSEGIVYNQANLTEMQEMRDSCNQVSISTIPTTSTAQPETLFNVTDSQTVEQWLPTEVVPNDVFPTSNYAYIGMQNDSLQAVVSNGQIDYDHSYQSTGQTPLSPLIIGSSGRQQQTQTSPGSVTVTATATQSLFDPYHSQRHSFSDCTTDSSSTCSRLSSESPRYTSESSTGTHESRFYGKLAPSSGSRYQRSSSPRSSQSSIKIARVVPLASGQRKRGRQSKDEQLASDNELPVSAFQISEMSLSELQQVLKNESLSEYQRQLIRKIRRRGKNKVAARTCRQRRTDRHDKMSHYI

[16] = NIH3T3 cell viability loss – ATP luminescence, mouse fibroblasts, counter-screen, dose response (AID 2010); type: functional, cell-based;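 also: cells exposed to compound for about 90 hours before reading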
[17] = Trypanosoma cruzi growth suppression in host cells – NIH3T3 host cells, beta-gal luminescence, confirmation (AID 2044); type: functional, cell-based;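 also: intracellular parasites grown in NIH/3T3 mouse fibroblasts as host cells; luminescent beta-galactosidase reporter signal from transgenic T. cruzi replicating inside host cells; inhibitors lower the luminescence signal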
[18] = target: Paired box protein Pax-8 (Homo sapiens, UniProt Q06710); test: PAX8 transcriptional activity inhibition in RMG-I – RMG-I cells, luciferase, cherry-pick, dose response (AID 687027); type: functional, cell-based;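 also: luciferase reporter driven by Pax8 target thyroperoxidase promoter measured by SteadyGlo luminescence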
Sequence of Paired box protein Pax-8 (Q06710 whole entry): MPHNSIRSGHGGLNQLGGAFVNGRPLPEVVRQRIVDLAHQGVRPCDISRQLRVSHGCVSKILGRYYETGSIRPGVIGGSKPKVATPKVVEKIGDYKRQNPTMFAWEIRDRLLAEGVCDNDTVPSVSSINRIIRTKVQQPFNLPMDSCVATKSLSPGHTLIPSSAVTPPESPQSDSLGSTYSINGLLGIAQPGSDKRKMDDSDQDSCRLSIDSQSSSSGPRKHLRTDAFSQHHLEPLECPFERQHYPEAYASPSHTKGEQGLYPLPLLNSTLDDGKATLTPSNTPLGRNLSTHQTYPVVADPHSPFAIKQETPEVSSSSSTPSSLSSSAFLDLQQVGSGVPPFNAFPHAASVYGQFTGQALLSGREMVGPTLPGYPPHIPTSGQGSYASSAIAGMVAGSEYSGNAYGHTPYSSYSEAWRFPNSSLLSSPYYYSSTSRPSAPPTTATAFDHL

## Cc1cccc2cc(C#N)c(NCCCn3ccnc3)nc12
[1]
  IC50: 43.2 µM (active)
[2]
  CC50: > 40 µM (active)

## CCN(CC)c1ccc(NC(=O)c2ccc(Br)o2)c(C)c1
[3]
  AC50: 1.61 µM (active)

## CC1CCN(C(=O)C2CCN(CCCc3ccccc3)CC2)CC1
[4]
  EC50: 7.69 µM (active)

## O=C(Nc1nc2ccccc2[nH]1)c1ccc(F)cc1
[1]
  IC50: 4.33 µM (active)
[2]
  CC50: > 40 µM (active)

## Cc1ccc(C(=O)NCc2ccco2)cc1S(=O)(=O)Nc1cccc(Cl)c1
[4]
  EC50: 5.11 µM (active)
[5]
  EC50: > 150 µM (inactive)

## Nc1nc(-c2ccc3ccccc3c2)cs1
[3]
  AC50: 0.188 µM (active)

## COc1ccccc1CCC(=O)OCC(=O)c1c(N)n(CC(C)C)c(=O)n(C)c1=O
[6]
  IC50: 14.8 µM (active)

## O=C1NC(c2ccccc2)(C(F)(F)F)SC2=CCCCCN12 (stereo unspecified)
[7]
  IC50: > 66 µM (inactive)
[8]
  IC50: > 66 µM (inactive)

## CCCC(=O)NCc1ccccc1Cl
[9]
  IC50: 36.3 µM (not active)

## CCCCC(CC)C(=O)NCc1ccccc1OC (stereo unspecified)
[10]
  IC50: > 50 µM (not active)

## Oc1ccc(-c2nnc(S)n2-c2ccc(F)c(Cl)c2)nn1
[3]
  AC50: 7.36 µM (active)

## O=C1C2CCCCC2C(=O)N1c1nc(Cc2ccccc2)n[nH]1 (stereo unspecified)
[11]
  IC50: > 100 µM (not active)

## CCOc1ccc(NC(=O)CN(c2cccc(C(F)(F)F)c2)S(C)(=O)=O)cc1
[4]
  EC50: 9.24 µM (active)

## Cc1ccc(C2=NNC(=O)C(c3c[nH]c4ccccc34)C2)cc1 (stereo unspecified)
[9]
  IC50: 46.4 µM (not active)

## O=C(NC(=S)NNS(=O)(=O)c1ccc(Cl)cc1)c1cccnc1
[7]
  IC50: > 66 µM (inactive)
[8]
  IC50: > 66 µM (inactive)

## CCC(SC1=NCCS1)C(=O)Nc1ccc(S(N)(=O)=O)cc1 (stereo unspecified)
[7]
  IC50: > 66 µM (inactive)
[8]
  IC50: > 66 µM (inactive)

## CC1CCCCC1NC(=O)CCn1ccc2cc(S(=O)(=O)N3CCCC3)ccc21 (stereo unspecified)
[12]
  EC50: > 150 µM (not active)
[13]
  EC50: > 150 µM (not active)
[14]
  EC50: > 150 µM (not active)
[6]
  IC50: 17 µM (active)

## O=C(CCc1ccccc1F)N1CCN(c2ccccc2)CC1
[3]
  AC50: > 100 µM (inactive)

## O=C(Nc1ccc2c(c1)OCO2)N1CCN(c2ncc(C(F)(F)F)cc2Cl)CC1
[4]
  EC50: 1.99 µM (active)

## Cc1ccc(N(CC(=O)NC2CCCC2)C(=O)c2ccc(C)s2)cc1
[9]
  IC50: > 50 µM (not active)

## CC(C)CC(c1nnnn1C1CCCC1)N1CCC(C(N)=O)CC1 (stereo unspecified)
[9]
  IC50: > 50 µM (not active)

## CN(CC(=O)N1CCN(c2ccccc2)CC1)S(=O)(=O)c1c[nH]cn1
[3]
  AC50: 4.58 µM (active)

## Cc1cc(C)cc(NC(=O)CSc2nnc(Cc3cccn3C)n2-c2ccc(F)cc2)c1
[4]
  EC50: 2.01 µM (active)

## Clc1ccc(OCCCCSc2ncccn2)cc1
[15]
  IC50: 21.7 µM (active)
[7]
  IC50: > 66 µM (inactive)
[8]
  IC50: > 66 µM (inactive)

## CC[n+]1c(/C=C(\C)Nc2ccccc2)sc2ccccc21
[2]
  CC50: 30.1 µM (active)

## Cn1c(N)c(C(=O)COC(=O)C2CCCCC2)c(=O)n(C)c1=O
[9]
  IC50: 6.73 µM (active)

## CC(=O)Nc1ccc(SC[C@H](Cc2ccccc2)N2CC[C@@H](C(C)(C)C)CCC2=O)cc1
[7]
  IC50: > 66 µM (inactive)
[8]
  IC50: > 66 µM (inactive)

## O=C(NNS(=O)(=O)c1ccc(C(=O)NC2CCCC2)cc1)c1ccncc1
[3]
  AC50: 1.67 µM (active)

## O=C(c1ccccc1)N1CC(COc2ccccc2)OC(c2ccco2)O1 (stereo unspecified)
[4]
  EC50: 12.4 µM (active)

## COc1ccccc1NC(=O)C1CCCN(c2ncnc3c2nc2n3CCCCC2)C1 (stereo unspecified)
[6]
  IC50: 15.1 µM (active)

## c1ccc(CCc2nn3c(Cc4ccccc4)nnc3s2)cc1
[6]
  IC50: 27.5 µM (active)

## CCc1ccc(Nc2c([N+](=O)[O-])nn(-c3ccc4c(c3)OCCO4)[n+]2[O-])cc1
[16]
  EC50: > 60 µM (not active)
[17]
  EC50: 0.447 µM (active)
[6]
  IC50: 12.6 µM (active)

## CC(C)CC(=O)Nc1nnc(SCC(=O)Nc2ccc(F)cc2)s1
[9]
  IC50: > 50 µM (not active)

## CCOC(=O)N1CCc2[nH]c3ccc(C)cc3c2C1
[7]
  IC50: > 66 µM (inactive)
[8]
  IC50: 55.2 µM (inactive)

## N#CC1=C(N)Oc2cc(N)ccc2C1C1CC=CCC1 (stereo unspecified)
[3]
  AC50: 5.72 µM (active)

## CCC(=O)Nc1ccc(C(=O)N2CCN(C(=O)c3ccco3)CC2)cc1
[9]
  IC50: 25.3 µM (not active)

## CC(=O)OCc1c(C(F)(F)F)nn(C)c1Oc1cccc(C(F)(F)F)c1
[4]
  EC50: 8.45 µM (active)

## CCCn1c2ccccc2c2cnn(CC(=O)NCCCN3CCCCC3)c(=O)c21
[6]
  IC50: 12.6 µM (active)

## C[C@H](CO)N1C[C@H](C)[C@@H](CN(C)S(=O)(=O)c2ccc(Cl)cc2)OCCCC[C@H](C)Oc2ccc(NS(=O)(=O)c3ccc(Cl)cc3)cc2C1=O
[18]
  AC50: 4.34 µM (active)

## CC(/C=C/c1ccccc1F)=N\NC(=O)c1ccccc1
[1]
  IC50: 21.8 µM (active)
[2]
  CC50: > 40 µM (active)
